Test results as given in US20240124467A1, “FUSED PYRIMIDINE COMPOUNDS AS INHIBITORS OF MENIN-MLL INTERACTION” (Biomea Fusion, Inc., priority 2020, published 2024).
Like-named read-outs stand apart in the source and are kept apart here.

Experiments:
Format in all cases: cell-based
[1] = tested on: MV4-11; experiment: Cell proliferation inhibition (CellTiter-Glo), MV4-11 cells; conditions: Homo sapiens, MV4-11 (MLL-AF4)
Method: (§1) The present example evaluates the ability of compounds described herein, inhibitors of Menin/MLL interaction, to inhibit cell proliferation. The proliferation inhibitory effect was investigated in human MLL-leukemia cells selected on the bases of MLL fusion proteins and listed in the table below.
(§2) ATP is present in all metabolically active cells and is considered as a marker for cell viability and proliferation. The metabolic cell activity was determined using the CellTiter-Glo kit from Promega, an ATP monitoring system based on the production of luminescence by the reaction of ATP with added UltraGlo® recombinant luciferase (Kawano et al., 2016, PLOS One, 8:11(7):e0158888), according to the supplier's experimental recommendations. The assay is based on a 96 well plate format. All experiments were carried out in duplicate in one test occasion.
(§3) Test items were dissolved at 20 mM in DMSO with purity ≥99.9% (Sigma catalog no. D8418) and stored at −20° C. Cells were maintained in RPMI-1640 medium (Invitrogen catalog no. 618700) supplemented with 10% of Heat Inactivated FBS (Invitrogen catalog no. 10500) and 1% Pen-Strep (Invitrogen catalog no. 15140) and cultured at 37° C. in a humidified incubator with 5% CO2. Cell lines were grown in suspension and the cell density was maintained in a range of 5×10^4-1×10^6 viable cells/ml where possible. Cells were pelleted at 130 g×5 min.
(§4) Serial dilutions of compounds 1 to 3 in DMSO 100% were prepared starting from a 2.5 mM solutions (prepared by diluting 1:8 the 20 mM stock solution) to generate a 7 point concentration response curve (CRC). Seven concentrations of test compounds (e.g., 5.00×10^−6-1.67×10^−6-5.56×10^−7-1.85×10^−7-6.17×10^−8-2.06×10^−8-6.86×10^−9 M) were assessed in duplicate in an individual test occasion in parallel in the selected cell lines. KO-539 was used as a reference compound and tested in duplicate at seven similar concentrations. 100% of proliferation was represented by the untreated cells (0.2% DMSO).
(§5) Cell proliferation inhibition was monitored at both the following end points: Day 4 (T4) and Day 7 (T7). For the appropriate cell density during the exponential cell growth and re-supply with fresh compound solution at T4, cells were diluted (1:4) with fresh medium containing the compound concentration (1×).
(§6) For each plate to test, one 0.4 μL copy plate and four 0.3 μL copy plates were stamped into 96-well plates not treated for cell adhesion (Sarstedt—cat. no. 82.1581.001) by acoustic liquid handling (Echo) at a concentration which was 500 fold the final assay concentration. Stamped plates were stored at −20° C.
(§7) On Day 0, the day of the experiment cell line suspensions were counted by Cell Viability Analyser, Vi-CELL (Beckman Coulter AY15292), and diluted with fresh medium to obtain the following cell densities: K-562 500 c/ml, MOLM-13 1,000 c/ml, MV4-11 10,000 c/ml, OCI-AML-3 500 c/ml, and U-937 500-1,000 c/ml. 200 μL/well and 150 μL/well of cell suspension were added into the 0.4 μL/well and 0.3 μL/well compound plates, respectively. Cell plate containing 200 μL/well suspension were incubated at 37° C. in a humidified incubator with 5% CO2. From each well of the 150 μL/well cell assay plate, 100 μL were harvested and transferred into a 96-well Optiplate (Perkin Elmer, cat. no. 6005290). Cell viability was measured as described below.
(§8) On Day 4, 150p/well of fresh medium was added into a new 0.3 μL/well copy compound plates. From each well of the 200 μL/well cell assay plate, 100 μL was sampled for the cell viability measurement as described below. 50p was harvested and added to the 150p/well compound plate prepared as described in the first point to dilute 1:4 the cell suspension. The cell assay plate diluted and containing 200 μL/well suspension was incubated at 37° C. in a humidified incubator with 5% CO2.
(§9) On Day 4, 150p/well of fresh medium was added into a new 0.3 μL/well copy compound plates. […]

[2] = tested on: K-562; experiment: Cell proliferation inhibition (CellTiter-Glo), K-562 cells; conditions: Homo sapiens, K-562 (BCR-ABL)
Method: as §1, §2, §3, §4, §5, §6, §7, §8, §9

[3] = tested on: MOLM-13; experiment: Cell proliferation inhibition (CellTiter-Glo), MOLM-13 cells; conditions: Homo sapiens, MOLM-13 (MLL-AF9)
Method: as §1, §2, §3, §4, §5, §6, §7, §8, §9

[4] = 96 h, Day 4, read-out: MV-4:11 IC50 μM (Day 4)*
[5] = K562, 96 h, Day 4, read-out: K-562 IC50 μM (Day 4)
[6] = 96 h, Day 4, read-out: MOLM-13 Day IC50 μM (Day 4)*
[7] = 168 h, Day 7, read-out: MV-4:11 IC50 μM (Day 7)*
[8] = K562, 168 h, Day 7, read-out: K-562 IC50 μM (Day 7)*
[9] = 168 h, Day 7, read-out: MOLM-13 Day IC50 μM (Day 7)*

Structure (SMILES)	IC50 [1, 4] [µM]	IC50 [2, 5] [µM]	IC50 [3, 6] [µM]	IC50 [1, 7] [µM]	IC50 [2, 8] [µM]	IC50 [3, 9] [µM]
C=CC(=O)N[C@@H]1CCCN(Cc2ccnc(C(=O)Nc3ccc(-c4cc5c(C6CCOCC6)ncnc5[nH]4)cc3)c2)C1 [Compound B0700-516, (R)-4-((3-acrylamidopiperidin-1-yl)methyl)-N-(4-(4-(tetrahydro-2H-pyran-4-yl)-7H-pyrrolo[2,3-d]pyrimidin-6-yl)phenyl)picolinamide]	1.5	4.34	1.56	–	–	–
C=CC(=O)N[C@H]1CCCN(Cc2ccnc(C(=O)Nc3ccc(-c4cc5c(N6CCOCC6)ncnc5[nH]4)cc3)c2)C1 [Compound B0700-704]	–	0.74	0.35	–	–	–
C=CC(=O)N[C@@H]1CCCN(Cc2ccnc(C(=O)NC3CCN(c4nc5c(N6CCOCC6)ncnc5s4)CC3)c2)C1 [Compound B0700-310, (R)-4-((3-acrylamidopiperidin-1-yl)methyl)-N-(1-(7-morpholinothiazolo[5,4-d]pyrimidin-2-yl)piperidin-4-yl)picolinamide]	8.92	2.89	> 10	–	–	–
C=CC(=O)N1CCCC(N2CC[C@@H](C(=O)Nc3ccc(-c4cc5c(N6CCOCC6)ncnc5[nH]4)cc3)C2)C1 (stereo partly drawn) [Compound B0700-608, (3R)-1-(1-acryloylpiperidin-3-yl)-N-(4-(4-morpholino-7H-pyrrolo[2,3-d]pyrimidin-6-yl)phenyl)pyrrolidine-3-carboxamide]	0.138	2.19	0.197	0.1	3.65	0.164
C=CC(=O)N[C@@H]1CCCN(Cc2ccnc(C(=O)Nc3ccc(-c4[nH]c5ncnc(N6CCOCC6)c5c4C)cc3)c2)C1 [Compound B0700-528]	0.464	1.18	0.462	–	–	–
C=CC(=O)N[C@@H]1CCCN(Cc2ccc(F)c(C(=O)Nc3ccc(-c4cc5c(N6CCOCC6)ncnc5[nH]4)cc3)c2)C1 [Compound B0700-530]	0.314	0.616	0.28	–	–	–
C=CC(=O)N[C@@H]1CCCN(Cc2ccnc(C(=O)Nc3ccc(-c4cc5c(N6CCOCC6)ncnc5[nH]4)c(F)c3)c2)C1 [Compound B0700-529, (R)-4-((3-acrylamidopiperidin-1-yl)methyl)-N-(3-fluoro-4-(4-morpholino-7H-pyrrolo[2,3-d]pyrimidin-6-yl)phenyl)picolinamide]	0.969	6.14	0.351	–	–	–
C=CC(=O)N1CC(N2CCCC(CNS(=O)(=O)N3CCN(c4nc5c(N6CCOCC6)ncnc5[nH]4)CC3)C2)C1 (stereo not shown) [Compound B0700-512]	> 10	5.18	> 10	–	–	–
C=CC(=O)N[C@H]1CCN(c2cccc(CS(=O)(=O)Nc3ccc(-c4cc5c(N6CCOCC6)ncnc5[nH]4)cc3)c2)C1 [Compound B0700-511, (S)—N-(1-(3-((N-(4-(4-morpholino-7H-pyrrolo[2,3-d]pyrimidin-6-yl)phenyl)sulfamoyl)methyl)phenyl)pyrrolidin-3-yl)acrylamide]	0.113	8.31	0.185	–	–	–
Cc1cc(C)n2c1C=C1C=CC(CCC(=O)NCCCCN(C)C/C=C/C(=O)Nc3ccc(CC(=O)Nc4ccc(-c5cc6c(N7CCOCC7)ncnc6[nH]5)cc4)cc3)=[N+]1[B-]2(F)F [Compound B0700-504]	1.6	> 10	1.23	–	–	–
C=CC(=O)N1CCC(N2CCN(S(=O)(=O)Nc3ccc(-c4cc5c(N6CCOCC6)ncnc5[nH]4)cc3)CC2)CC1 [Compound B0700-612, 4-(1-acryloylpiperidin-4-yl)-N-(4-(4-morpholino-7H-pyrrolo[2,3-d]pyrimidin-6-yl)phenyl)piperazine-1-sulfonamide]	1.4	> 10	2.85	1.14	> 10	2.39
C=CC(=O)N1CCC(Nc2ccnc(C(=O)Nc3ccc(-c4cc5c(N6CCOCC6)ncnc5[nH]4)cc3)c2)CC1 [Compound B0700-616, 4-((1-acryloylpiperidin-4-yl)amino)-N-(4-(4-morpholino-7H-pyrrolo[2,3-d]pyrimidin-6-yl)phenyl)picolinamide]	0.218	0.744	0.154	0.17	0.636	0.157
C=CS(=O)(=O)N[C@@H]1CCCN(Cc2ccnc(C(=O)Nc3ccc(-c4cc5c(N6CCOCC6)ncnc5[nH]4)cc3)c2)C1 [Compound B0700-333, (R)—N-(4-(4-morpholino-7H-pyrrolo[2,3-d]pyrimidin-6-yl)phenyl)-4-((3-(vinylsulfonamido)piperidin-1-yl)methyl)picolinamide]	0.051	0.074	0.069	–	–	–
C=CC(=O)N[C@@H]1CCCN(c2cccc(CS(=O)(=O)Nc3ccc(-c4cc5c(N6CCOCC6)ncnc5[nH]4)cc3)c2)C1 [Compound B0700-539]	0.436	> 10	0.374	–	–	–
C=CC(=O)N[C@@H]1CCCN(Cc2ccnc(C(=O)NC3CC=C(c4cc5c(N6CCOCC6)ncnc5[nH]4)CC3)c2)C1 (stereo partly shown) [Compound B0700-527]	0.371	2.89	0.607	–	–	–
C=CC(=O)N[C@@H]1CCCN(Cc2cccc(S(=O)(=O)NC3CCN(c4nc5c(N6CCOCC6)ncnc5s4)CC3)c2)C1 [Compound B0700-533]	> 10	> 10	> 10	–	–	–
C=CC(=O)N[C@@H]1CCCN(Cc2ccnc(C(=O)NC3CCN(c4nc5c(N6CCOCC6)ncnc5o4)CC3)c2)C1 [Compound B0700-518]	> 10	5.3	> 10	–	–	–
C=CC(=O)N[C@@H]1CCCN(Cc2ccnc(C(=O)Nc3ccc(-c4cc5c(N6CCOCC6)ncnc5[nH]4)cc3F)c2)C1 [Compound B0700-549]	0.796	> 10	0.475	–	–	–
C=CC(=O)N[C@@H]1CCN(c2cccc(CS(=O)(=O)Nc3ccc(-c4cc5c(N6CCOCC6)ncnc5[nH]4)cc3)c2)C1 [Compound B0700-535, (R)—N-(1-(3-((N-(4-(4-morpholino-7H-pyrrolo[2,3-d]pyrimidin-6-yl)phenyl)sulfamoyl)methyl)phenyl)pyrrolidin-3-yl)acrylamide]	> 10	7.05	0.184	–	–	–
[2H]C([2H])=C([2H])C(=O)N[C@@H]1CCCN(Cc2ccnc(C(=O)Nc3ccc(-c4cc5c(N6CCOCC6)ncnc5[nH]4)cc3)c2)C1 [Compound B0700-557, (R)-4-((3-(acrylamido-2,3,3-d3)piperidin-1-yl)methyl)-N-(4-(4-morpholino-7H-pyrrolo[2,3-d]pyrimidin-6-yl)phenyl)picolinamide]	–	0.997	0.271	–	–	–
